PubChem BioAssay (NCI)
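How tested: cells in 96-well plates exposed to compound for 48 hours at five concentrations. GI50 marks 50% less growth. The concentration for full growth arrest is given as TGI.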

Tests used:
Experiment in all cases: NCI tumour cell line growth inhibition, 48 h
786-0 renal = system: 786-0 renal
A498 renal = system: A498 renal
A549 NSCLC = system: A549 NSCLC
ACHN renal = system: ACHN renal
BT-549 breast = system: BT-549 breast
CAKI-1 renal = system: CAKI-1 renal
CCRF-CEM leukemia = system: CCRF-CEM leukemia
COLO 205 colon = system: COLO 205 colon
DU-145 prostate = system: DU-145 prostate
EKVX NSCLC = system: EKVX NSCLC
HCC-2998 colon = system: HCC-2998 colon
HCT-116 colon = system: HCT-116 colon
HCT-15 colon = system: HCT-15 colon
HL-60(TB) leukemia = system: HL-60(TB) leukemia
HOP-62 NSCLC = system: HOP-62 NSCLC
HOP-92 NSCLC = system: HOP-92 NSCLC
HS 578T breast = system: HS 578T breast
HT29 colon = system: HT29 colon
IGROV1 ovarian = system: IGROV1 ovarian
K-562 leukemia = system: K-562 leukemia
KM12 colon = system: KM12 colon
LOX IMVI melanoma = system: LOX IMVI melanoma
M14 melanoma = system: M14 melanoma
MCF7 breast = system: MCF7 breast
MDA-MB-231 breast = system: MDA-MB-231 breast
MDA-MB-435 = system: MDA-MB-435
MOLT-4 leukemia = system: MOLT-4 leukemia
NCI-H226 lung = system: NCI-H226 lung
NCI-H23 lung = system: NCI-H23 lung
NCI-H460 lung = system: NCI-H460 lung
NCI-H522 lung = system: NCI-H522 lung
NCI/ADR-RES ovarian = system: NCI/ADR-RES ovarian
OVCAR-3 ovarian = system: OVCAR-3 ovarian
OVCAR-4 ovarian = system: OVCAR-4 ovarian
OVCAR-5 ovarian = system: OVCAR-5 ovarian
OVCAR-8 ovarian = system: OVCAR-8 ovarian
PC-3 prostate = system: PC-3 prostate
RPMI-8226 leukemia = system: RPMI-8226 leukemia
RXF 393 renal = system: RXF 393 renal
SF-268 CNS = system: SF-268 CNS
SF-295 CNS = system: SF-295 CNS
SF-539 CNS = system: SF-539 CNS
SK-MEL-2 melanoma = system: SK-MEL-2 melanoma
SK-MEL-28 melanoma = system: SK-MEL-28 melanoma
SK-MEL-5 melanoma = system: SK-MEL-5 melanoma
SK-OV-3 ovarian = system: SK-OV-3 ovarian
SN12C renal = system: SN12C renal
SNB-19 CNS = system: SNB-19 CNS
SNB-75 CNS = system: SNB-75 CNS
SR leukemia = system: SR leukemia
SW-620 colon = system: SW-620 colon
T-47D breast = system: T-47D breast
TK-10 renal = system: TK-10 renal
U251 CNS = system: U251 CNS
UACC-257 melanoma = system: UACC-257 melanoma
UACC-62 melanoma = system: UACC-62 melanoma
UO-31 renal = system: UO-31 renal
MALME-3M melanoma = system: MALME-3M melanoma

SMILES: COCc1nc(N)nc(N2N=C(C)CC2(C)C)n1
- TGI (786-0 renal): > 100 µM
- TGI (A498 renal): > 100000 nM
- TGI (A549 NSCLC): > 100 µM
- TGI (ACHN renal): > 100 µM
- TGI (BT-549 breast): > 100000 nM
- TGI (CAKI-1 renal): > 100 µM
- TGI (CCRF-CEM leukemia): > 100 µM
- TGI (COLO 205 colon): > 100 µM
- TGI (DU-145 prostate): > 100 µM
- TGI (EKVX NSCLC): > 100 µM
- TGI (HCC-2998 colon): > 100000 nM
- TGI (HCT-116 colon): > 100000 nM
- TGI (HCT-15 colon): > 100 µM
- TGI (HL-60(TB) leukemia): > 100 µM
- TGI (HOP-62 NSCLC): > 100000 nM
- TGI (HOP-92 NSCLC): > 100000 nM
- TGI (HS 578T breast): > 100 µM
- TGI (HT29 colon): > 100000 nM
- TGI (IGROV1 ovarian): > 100 µM
- TGI (K-562 leukemia): > 100 µM
- TGI (KM12 colon): > 100000 nM
- TGI (LOX IMVI melanoma): > 100000 nM
- TGI (M14 melanoma): > 100000 nM
- TGI (MCF7 breast): > 100 µM
- TGI (MDA-MB-231 breast): > 100000 nM
- TGI (MDA-MB-435): > 100000 nM
- TGI (MOLT-4 leukemia): > 100 µM
- TGI (NCI-H226 lung): > 100000 nM
- TGI (NCI-H23 lung): > 100 µM
- TGI (NCI-H460 lung): > 100 µM
- TGI (NCI-H522 lung): > 100000 nM
- TGI (NCI/ADR-RES ovarian): > 100 µM
- TGI (OVCAR-3 ovarian): > 100000 nM
- TGI (OVCAR-4 ovarian): > 100 µM
- TGI (OVCAR-5 ovarian): > 100000 nM
- TGI (OVCAR-8 ovarian): > 100000 nM
- TGI (PC-3 prostate): > 100000 nM
- TGI (RPMI-8226 leukemia): > 100 µM
- TGI (RXF 393 renal): > 100000 nM
- TGI (SF-268 CNS): > 100000 nM
- TGI (SF-295 CNS): > 100000 nM
- TGI (SF-539 CNS): > 100000 nM
- TGI (SK-MEL-2 melanoma): > 100000 nM
- TGI (SK-MEL-28 melanoma): > 100000 nM
- TGI (SK-MEL-5 melanoma): > 100000 nM
- TGI (SK-OV-3 ovarian): > 100 µM
- TGI (SN12C renal): > 100000 nM
- TGI (SNB-19 CNS): > 100 µM
- TGI (SNB-75 CNS): > 100000 nM
- TGI (SR leukemia): > 100 µM
- TGI (SW-620 colon): > 100 µM
- TGI (T-47D breast): > 100000 nM
- TGI (TK-10 renal): > 100000 nM
- TGI (U251 CNS): > 100 µM
- TGI (UACC-257 melanoma): > 100 µM
- TGI (UACC-62 melanoma): > 100000 nM
- TGI (UO-31 renal): > 100000 nM

SMILES: CC(C)C[C@H](NC(=O)CNC(=O)c1cc(Cl)ccc1Cl)B1OC(=O)CC(CC(=O)O)(C(=O)O)O1 (some centres not stated)
- GI50 (786-0 renal): 65.5 nM
- GI50 (A498 renal): 34.7 nM
- TGI (A498 renal): 164 nM
- GI50 (A549 NSCLC): 110 nM
- TGI (A549 NSCLC): 20.6 µM
- GI50 (ACHN renal): 38.9 nM
- TGI (ACHN renal): > 59.9 µM
- GI50 (BT-549 breast): 32.4 nM
- TGI (BT-549 breast): 126 nM
- GI50 (CAKI-1 renal): 41 nM
- TGI (CAKI-1 renal): 4.48 µM
- GI50 (CCRF-CEM leukemia): 29.9 nM
- TGI (CCRF-CEM leukemia): > 100 µM
- GI50 (COLO 205 colon): 86.8 nM
- TGI (COLO 205 colon): 22.3 µM
- GI50 (DU-145 prostate): 80.4 nM
- TGI (DU-145 prostate): 14.8 µM
- GI50 (EKVX NSCLC): 369 nM
- TGI (EKVX NSCLC): 30.8 µM
- GI50 (HCC-2998 colon): 32.6 nM
- TGI (HCC-2998 colon): 105 nM
- GI50 (HCT-116 colon): 26.7 nM
- TGI (HCT-116 colon): 71.1 nM
- GI50 (HCT-15 colon): 57.8 nM
- TGI (HCT-15 colon): 5.98 µM
- GI50 (HL-60(TB) leukemia): 53.3 nM
- TGI (HL-60(TB) leukemia): > 100 µM
- GI50 (HOP-62 NSCLC): 124 nM
- TGI (HOP-62 NSCLC): 1050 nM
- GI50 (HOP-92 NSCLC): 21.9 nM
- TGI (HOP-92 NSCLC): 173 nM
- GI50 (HS 578T breast): 52.4 nM
- TGI (HS 578T breast): 80.7 µM
- GI50 (HT29 colon): 32.7 nM
- TGI (HT29 colon): 141 nM
- GI50 (IGROV1 ovarian): 231 nM
- TGI (IGROV1 ovarian): > 41.8 µM
- GI50 (K-562 leukemia): 74 nM
- TGI (K-562 leukemia): > 100 µM
- GI50 (KM12 colon): 105 nM
- TGI (KM12 colon): 607 nM
- GI50 (LOX IMVI melanoma): 32.5 nM
- TGI (LOX IMVI melanoma): 120 nM
- GI50 (M14 melanoma): 34 nM
- TGI (M14 melanoma): 143 nM
- GI50 (MALME-3M melanoma): 32.9 nM
- TGI (MALME-3M melanoma): 412 nM
- GI50 (MCF7 breast): 39.1 nM
- TGI (MCF7 breast): 43.1 µM
- GI50 (MDA-MB-231 breast): 53.2 nM
- TGI (MDA-MB-231 breast): 485 nM
- GI50 (MDA-MB-435): 22.2 nM
- TGI (MDA-MB-435): 61.2 nM
- GI50 (MOLT-4 leukemia): 36.6 nM
- TGI (MOLT-4 leukemia): > 100 µM
- GI50 (NCI-H226 lung): 14.1 nM
- TGI (NCI-H226 lung): 32.5 nM
- GI50 (NCI-H23 lung): 48 nM
- TGI (NCI-H23 lung): 6.44 µM
- GI50 (NCI-H460 lung): 231 nM
- GI50 (NCI-H522 lung): 21.7 nM
- TGI (NCI-H522 lung): 56 nM
- GI50 (NCI/ADR-RES ovarian): 368 nM
- TGI (NCI/ADR-RES ovarian): > 100 µM
- GI50 (OVCAR-3 ovarian): 26.9 nM
- TGI (OVCAR-3 ovarian): 79.1 nM
- GI50 (OVCAR-4 ovarian): 73.3 nM
- TGI (OVCAR-4 ovarian): 19 µM
- GI50 (OVCAR-5 ovarian): 92.8 nM
- TGI (OVCAR-5 ovarian): 1200 nM
- GI50 (OVCAR-8 ovarian): 66 nM
- TGI (OVCAR-8 ovarian): 1440 nM
- GI50 (PC-3 prostate): 105 nM
- TGI (PC-3 prostate): 1820 nM
- GI50 (RPMI-8226 leukemia): 32.1 nM
- GI50 (RXF 393 renal): 19.3 nM
- TGI (RXF 393 renal): 43.8 nM
- GI50 (SF-268 CNS): 72.3 nM
- TGI (SF-268 CNS): 2430 nM
- GI50 (SF-295 CNS): 71 nM
- TGI (SF-295 CNS): 1140 nM
- GI50 (SF-539 CNS): 23 nM
- TGI (SF-539 CNS): 52.8 nM
- GI50 (SK-MEL-2 melanoma): 39.9 nM
- TGI (SK-MEL-2 melanoma): 239 nM
- GI50 (SK-MEL-28 melanoma): 34.5 nM
- TGI (SK-MEL-28 melanoma): 191 nM
- GI50 (SK-MEL-5 melanoma): 17.7 nM
- TGI (SK-MEL-5 melanoma): 46.7 nM
- GI50 (SK-OV-3 ovarian): 261 nM
- TGI (SK-OV-3 ovarian): 29.6 µM
- GI50 (SN12C renal): 86.2 nM
- TGI (SN12C renal): 982 nM
- GI50 (SNB-19 CNS): 209 nM
- TGI (SNB-19 CNS): > 100 µM
- GI50 (SNB-75 CNS): 182 nM
- TGI (SNB-75 CNS): 504 nM
- GI50 (SR leukemia): 38.4 nM
- TGI (SR leukemia): > 100 µM
- GI50 (SW-620 colon): 36.4 nM
- GI50 (T-47D breast): 28.5 nM
- TGI (T-47D breast): 81.9 nM
- GI50 (TK-10 renal): 28.7 nM
- TGI (TK-10 renal): 373 nM
- GI50 (U251 CNS): 87.4 nM
- TGI (U251 CNS): 5.64 µM
- GI50 (UACC-62 melanoma): 39.6 nM
- TGI (UACC-62 melanoma): 221 nM
- GI50 (UO-31 renal): 58.6 nM
- TGI (UO-31 renal): 2000 nM
